# In patent US11214803B2, “Modulators of YAP1 expression” (Ionis Pharmaceuticals, Inc., priority 2019, dated 2022):
# Strand notation (5' to 3'): a small letter for the sugar, then the base; units joined by * are phosphorothioate-linked, units joined directly phosphodiester-linked; [ ] holds rarer units or linkages, { } end groups; capitals alone tell only the bases. k = constrained ethyl (cEt); [5mC] = 5-methylcytosine; d = 2'-deoxy (DNA)
# System: Yap1 mRNA
# Assay: Antisense inhibition of human Yap1 in A-431 cells by cEt gapmers, single dose (Example 4, RTS4814)
# Assay type: cell-based
# How it was run: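 Values are % UTC: Yap1 mRNA by quantitative RT-PCR, normalized to RIBOGREEN total RNA. Cells were exposed ~48 h to 2,000 nM oligonucleotide without transfection. Oligonucleotides were 16-nucleoside gapmers with three cEt nucleosides per wing, ten-deoxy gap, P=S linkages throughout.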
# [1] = Table 14, A-431 cells, 5,000 cells per well, free uptake, 2,000 nM, approximately 48 hours, RTS4814, normalized to RIBOGREEN, Yap1 mRNA relative to untreated control, * = targets amplicon region of primer probe set
# [2] = Table 17, A-431 cells, 5,000 cells per well, free uptake, 2,000 nM, approximately 48 hours, RTS4814, normalized to RIBOGREEN, Yap1 mRNA relative to untreated control cells
# [3] = Table 16, A-431 cells, 5,000 cells per well, free uptake, 2,000 nM, approximately 48 hours, RTS4814, normalized to RIBOGREEN, Yap1 mRNA relative to untreated control cells
# [4] = Yap1 mRNA remaining as percent of untreated control, 3-10-3 cEt gapmers, A-431 cells, Table 36
# [5] = Yap1 mRNA remaining as percent of untreated control, 3-10-3 cEt gapmers, A-431 cells, Table 37
# [6] = Table 15, A-431 cells, 5,000 cells per well, free uptake, 2,000 nM, approximately 48 hours, RTS4814, normalized to RIBOGREEN, Yap1 mRNA relative to untreated control, * = targets amplicon region of primer probe set
substance,measurement,setting,value
1075200 (antisense k[5mC]*kA*kT*dA*dT*dT*dA*dA*d[5mC]*dT*dA*dG*dA*kT*kG*kA) [Compound 1075200],YAP1 (% UTC),[1],120 % UTC
1076547 (antisense kG*kA*k[5mC]*d[5mC]*dA*dA*d[5mC]*d[5mC]*dT*d[5mC]*d[5mC]*d[5mC]*dT*k[5mC]*kA*kG) [Compound 1076547],YAP1 (% UTC),[2],89 % UTC
1076448 (k[5mC]*kT*kT*dA*dT*dA*dA*dT*dG*d[5mC]*dA*dA*dT*k[5mC]*k[5mC]*kT; antisense) [Compound 1076448],YAP1 (% UTC),[1],2 % UTC
1075552 (kG*kA*kT*dT*dA*dT*dA*dA*d[5mC]*dA*dT*dG*d[5mC]*kT*kG*kT; antisense) [Compound 1075552],YAP1 (% UTC),[1],74 % UTC
1074978 (antisense kT*kT*kG*d[5mC]*d[5mC]*dA*dG*dT*dT*d[5mC]*dT*dT*dG*kT*kT*k[5mC]) [Compound 1074978],YAP1 (% UTC),[3],38 % UTC
1075478 (k[5mC]*kA*kT*dT*dT*dT*dG*dA*dA*d[5mC]*d[5mC]*d[5mC]*dT*kT*kT*kA; antisense) [compound 1075478],YAP1 (% UTC),[4],20 % UTC
1075619 (k[5mC]*kT*kT*dA*dG*dA*dT*dA*d[5mC]*dT*dA*d[5mC]*dT*kT*kT*kG; antisense) [Compound 1075619],YAP1 (% UTC),[2],54 % UTC
1076438 (kT*kA*kG*dG*dA*dA*dG*dA*dA*dT*dA*dG*d[5mC]*kA*kT*k[5mC]; antisense) [compound 1076438],YAP1 (% UTC),[4],13 % UTC
1075139 (antisense k[5mC]*k[5mC]*k[5mC]*dA*dA*dA*dT*dA*dA*dT*dA*dG*dA*kT*kA*k[5mC]) [Compound 1075139],YAP1 (% UTC),[2],65 % UTC
1074179 (antisense k[5mC]*kG*kG*dG*dA*dT*d[5mC]*d[5mC]*dA*dT*dG*dG*d[5mC]*kT*kT*k[5mC]) [Compound 1074179],YAP1 (% UTC),[2],49 % UTC
1075136 (antisense k[5mC]*kT*kA*dG*dA*dA*dT*dA*dT*dT*dA*dA*dA*kG*kG*kG) [Compound 1075136],YAP1 (% UTC),[1],87 % UTC
1075607 (antisense kA*kA*kA*dA*d[5mC]*dG*dG*dT*dG*dT*dG*dA*dA*kG*kA*kA) [compound 1075607],YAP1 (% UTC),[5],45 % UTC
1075041 (antisense kG*kA*kT*dT*dA*dT*dA*dA*dA*dG*dA*dG*dG*k[5mC]*kT*k[5mC]) [Compound 1075041],YAP1 (% UTC),[6],5 % UTC
1074198 (antisense kT*kT*kG*d[5mC]*d[5mC]*d[5mC]*dG*dG*dG*dT*d[5mC]*d[5mC]*dG*kG*kA*k[5mC]) [compound 1074198],YAP1 (% UTC),[4],112 % UTC
1074147 (antisense kA*kG*kA*dA*dG*d[5mC]*dG*dG*d[5mC]*dG*dA*d[5mC]*dG*kG*k[5mC]*kT) [Compound 1074147],YAP1 (% UTC),[2],23 % UTC
1075330 (kG*kA*kG*dG*dG*dA*dA*dA*dA*d[5mC]*dT*dT*dT*kG*k[5mC]*kA; antisense) [Compound 1075330],YAP1 (% UTC),[3],63 % UTC
1074562 (antisense kG*kA*kA*dT*dT*d[5mC]*d[5mC]*dA*dA*dT*d[5mC]*dG*dA*kG*kA*k[5mC]) [Compound 1074562],YAP1 (% UTC),[3],30 % UTC
1075202 (antisense kA*kA*kT*dT*dA*dT*dA*dT*dA*dA*dG*dG*d[5mC]*kT*kG*kT) [Compound 1075202],YAP1 (% UTC),[3],26 % UTC
1076256 (kT*kT*kA*dT*dT*dT*dA*dG*dG*d[5mC]*d[5mC]*d[5mC]*d[5mC]*kA*kT*kA; antisense) [Compound 1076256],YAP1 (% UTC),[1],4 % UTC
1075490 (antisense k[5mC]*kA*kT*dA*dT*dA*d[5mC]*dG*d[5mC]*dA*dA*dT*dT*kA*kG*kT) [Compound 1075490],YAP1 (% UTC),[3],27 % UTC
1074135 (k[5mC]*k[5mC]*kG*d[5mC]*dG*dG*d[5mC]*d[5mC]*d[5mC]*d[5mC]*dG*d[5mC]*dA*kT*k[5mC]*k[5mC]; antisense) [compound 1074135],YAP1 (% UTC),[5],91 % UTC
1075735 (kG*kA*kA*dT*d[5mC]*dG*dA*dT*dG*dT*dG*dT*dT*kG*k[5mC]*kG; antisense) [compound 1075735],YAP1 (% UTC),[5],17 % UTC
1076449 (k[5mC]*k[5mC]*kT*dT*dA*dT*dA*dA*dT*dG*d[5mC]*dA*dA*kT*k[5mC]*k[5mC]; antisense) [Compound 1076449],YAP1 (% UTC),[6],2 % UTC
1075351 (antisense kA*kG*kA*dT*dT*dA*dA*dA*dG*d[5mC]*dT*d[5mC]*dA*kT*kT*kG) [compound 1075351],YAP1 (% UTC),[5],38 % UTC
1076215 (kT*kT*kA*dT*dA*dA*d[5mC]*dA*dG*dA*d[5mC]*dT*dG*kG*k[5mC]*kT; antisense) [compound 1076215],YAP1 (% UTC),[5],47 % UTC
1075361 (kT*k[5mC]*kT*dT*dA*dA*dG*dG*dG*dA*dA*dT*dG*kT*kA*kT; antisense) [Compound 1075361],YAP1 (% UTC),[6],69 % UTC
1076064 (kT*kA*kT*dG*dA*dA*d[5mC]*dA*dA*dT*dG*dT*dA*k[5mC]*kT*k[5mC]; antisense) [Compound 1076064],YAP1 (% UTC),[1],5 % UTC
1074294 (antisense kT*kT*kG*dG*dA*dG*dT*dT*dG*d[5mC]*dT*dG*d[5mC]*k[5mC]*kA*k[5mC]) [compound 1074294],YAP1 (% UTC),[4],80 % UTC
1075938 (kG*kA*kA*dT*dA*dT*dA*dT*dG*dG*dG*dT*dT*kT*k[5mC]*kA; antisense) [Compound 1075938],YAP1 (% UTC),[3],55 % UTC
1074466 (kA*k[5mC]*k[5mC]*dG*dA*d[5mC]*d[5mC]*d[5mC]*dT*dG*d[5mC]*d[5mC]*dA*kA*kA*kA; antisense) [Compound 1074466],YAP1 (% UTC),[3],32 % UTC
1074935 (antisense kA*k[5mC]*kA*dG*dG*dA*dG*dA*d[5mC]*dT*dA*dT*dA*k[5mC]*kA*kA) [compound 1074935],YAP1 (% UTC),[5],80 % UTC
1074871 (kT*kG*kT*dA*dA*dG*dT*dA*d[5mC]*d[5mC]*dT*dA*dA*k[5mC]*kA*kT; antisense) [compound 1074871],YAP1 (% UTC),[5],70 % UTC
1075138 (antisense kA*kA*kT*dA*dA*dT*dA*dG*dA*dT*dA*d[5mC]*dT*kG*k[5mC]*k[5mC]) [Compound 1075138],YAP1 (% UTC),[3],4 % UTC
1075203 (antisense kT*kA*kA*dT*dT*dA*dT*dA*dT*dA*dA*dG*dG*k[5mC]*kT*kG) [Compound 1075203],YAP1 (% UTC),[2],68 % UTC
1075585 (kA*kA*kA*dT*dA*dA*dT*dT*dG*dA*d[5mC]*d[5mC]*dT*kA*kG*k[5mC]; antisense) [Compound 1075585],YAP1 (% UTC),[6],52 % UTC
1075862 (antisense k[5mC]*kT*kA*dA*dT*dA*dA*d[5mC]*dT*dT*dG*dT*d[5mC]*kT*kA*k[5mC]) [compound 1075862],YAP1 (% UTC),[4],67 % UTC
1074882 (kG*k[5mC]*kT*dA*dA*d[5mC]*dT*d[5mC]*d[5mC]*dT*dG*d[5mC]*d[5mC]*kG*kA*kA; antisense) [compound 1074882],YAP1 (% UTC),"table after Table 37, headed TABLE 32 (gapmers targeting SEQ ID NO.: 3), A-431 cells, free uptake, 2,000 nM, approximately 48 hours, RTS4814",73 % UTC
1076247 (kG*kA*k[5mC]*d[5mC]*dA*dA*dA*dA*d[5mC]*dA*dG*d[5mC]*dT*k[5mC]*kT*kT; antisense) [compound 1076247],YAP1 (% UTC),[5],11 % UTC
1075810 (kG*kT*kA*dG*d[5mC]*dA*dA*dT*dA*dG*dA*dG*dT*kA*kA*k[5mC]; antisense) [Compound 1075810],YAP1 (% UTC),[3],7 % UTC
1074240 (antisense k[5mC]*kT*kG*dG*d[5mC]*dA*dG*dA*dG*dG*dT*dA*d[5mC]*kA*kT*k[5mC]) [Compound 1074240],YAP1 (% UTC),[1],29 % UTC
1074358 (antisense kT*k[5mC]*kG*dA*dG*dG*dG*dA*d[5mC]*dA*d[5mC]*dT*dG*kT*kA*kG) [compound 1074358],YAP1 (% UTC),[4],17 % UTC
1074657 (antisense kT*k[5mC]*k[5mC]*d[5mC]*d[5mC]*d[5mC]*d[5mC]*dA*dG*dA*d[5mC]*dT*dT*kA*kA*kT) [Compound 1074657],YAP1 (% UTC),[6],59 % UTC
1074327 (antisense kT*kA*k[5mC]*dG*d[5mC]*dA*dG*dG*dG*d[5mC]*dT*dA*dA*k[5mC]*kT*k[5mC]) [compound 1074327],YAP1 (% UTC),[5],39 % UTC
1074967 (antisense kG*kA*k[5mC]*dA*dA*dA*dT*dT*dG*dA*dA*dG*dT*kG*kT*kT) [compound 1074967],YAP1 (% UTC),[5],116 % UTC
1075296 (antisense kA*kT*kT*dA*dT*dA*dA*dG*d[5mC]*dT*dG*dT*dG*kT*kT*kG) [Compound 1075296],YAP1 (% UTC),[1],18 % UTC
1075651 (kT*kA*kT*dA*dT*dT*dA*d[5mC]*dA*dA*dT*d[5mC]*d[5mC]*k[5mC]*kA*kG; antisense) [Compound 1075651],YAP1 (% UTC),[2],57 % UTC
1075670 (antisense kT*kA*kT*dA*dT*dA*dT*dG*dA*dT*dG*dG*dA*k[5mC]*kT*kG) [compound 1075670],YAP1 (% UTC),[4],39 % UTC
1074774 (k[5mC]*kA*kA*dG*dA*dA*dT*dA*d[5mC]*d[5mC]*d[5mC]*dA*dG*kT*kT*kA; antisense) [compound 1074774],YAP1 (% UTC),[4],16 % UTC
1075575 (antisense kT*kT*kA*d[5mC]*dA*dA*d[5mC]*dA*d[5mC]*dA*dA*dG*dT*k[5mC]*kT*kA) [compound 1075575],YAP1 (% UTC),[5],55 % UTC
